The target in the experiment is T1, purified catalytic domain of recombinant human TACE (rhTACEc) (Homo sapiens, UniProt P78536, N452Q/S266A).
T1 construct: Residue 215 to 477 with two mutation (S266A and N452Q) and a 6×His tail; 6xHis (C); made in house; host or cells: baculovirus/Hi5 insect cells
Put plainly: TACE kinetic assay: cleavage of internally quenched peptide substrate SPDL-3, fluorescence. The conditions noted are these: TACE inhibitory activity, class symbols; read-out: Ki. It counts as biochemical. Here is the method:
TACE activity is determined by a kinetic assay measuring the rate of increase in fluorescent intensity generated by TACE catalyzed cleavage of an internally quenched peptide substrate (SPDL-3). […] It is purified from the baculovirus/Hi5 cells expression system using affinity chromatography. […] MCA is (7-Methoxycoumarin-4-yl)acetyl. Dpa is N-3-(2,4-Dinitrophenyl)-L-2,3-diaminopropionyl.
A 50 μl assay mixture contains 20 mM HEPES, pH 7.3, 5 mM CaCl2, 100 μM ZnCl2, 2% DMSO, 0.04% Methylcellulose, 30 μM SPDL-3, 70 pM rhTACEc and a test compound. RhTACEc is pre-incubated with the testing compound for 90 min. at 25° C. Reaction is started by addition of the substrate. […] Rate of enzymatic reaction is shown as Units per second. Effect of a test compound is shown as % of TACE activity in the absence of the compound.

Structures are written as SMILES.

T1 sequence (P78536 215-477 S266A/N452Q): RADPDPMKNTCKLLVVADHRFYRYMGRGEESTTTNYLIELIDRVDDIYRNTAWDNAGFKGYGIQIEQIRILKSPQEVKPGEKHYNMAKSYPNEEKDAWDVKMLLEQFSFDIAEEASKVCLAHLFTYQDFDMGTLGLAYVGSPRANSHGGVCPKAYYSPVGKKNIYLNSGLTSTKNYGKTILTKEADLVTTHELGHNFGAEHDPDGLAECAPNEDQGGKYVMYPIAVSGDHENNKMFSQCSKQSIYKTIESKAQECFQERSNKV

The term Ki denotes the equilibrium dissociation constant of an inhibitor or competing ligand from its target. With `C[C@@H](NC(=O)[C@H](O)[C@@H](O)C(=O)N1CCc2c(cnn2C)C1)c1ccc(-n2cccn2)cc1` [Compound 2074], the Ki lay within 0.02 to 0.1 µM.

As to `C[C@@H](NC(=O)[C@H](O)[C@@H](O)C(=O)N1CCc2nc(N)ncc2C1)c1ccc(-n2cccn2)cc1` [Compound 2075], the Ki is 0.02 to 0.1 µM.

Turning to `C[C@@H](NC(=O)[C@H](O)[C@@H](O)C(=O)N1CCc2cn[nH]c2C1)c1ccc(-n2cccn2)cc1` [Compound 2076], the Ki fell in the range of 0.02 to 0.1 µM. The same measure for `C[C@@H](NC(=O)[C@H](O)[C@@H](O)C(=O)N1CCc2ncccc2C1)c1ccc(-n2cccn2)cc1` [Compound 2077]: 0.02 to 0.1 µM.

For `C[C@@H](NC(=O)[C@](C)(O)[C@@H](O)C(=O)N1CCc2ncccc2C1)c1ccc(-n2cccn2)cc1` [Compound 2078], the Ki lay within 0.1 to 1 µM. Next, `C[C@@H](NC(=O)[C@H](O)[C@@H](O)C(=O)N1CCc2ncncc2C1)c1ccc(-n2cccn2)cc1` [Compound 2079]: 0.1 to 1 µM; `C[C@@H](NC(=O)[C@H](O)[C@@H](O)C(=O)N1CCn2cnnc2C1)c1ccc(-n2cccn2)cc1` [Compound 2080]: 0.1 to 1 µM. The same measure for `C[C@@H](NC(=O)[C@H](O)[C@@H](O)C(=O)N1CCc2nc(N)sc2C1)c1ccc(-n2cccn2)cc1` [Compound 2081]: less than 0.02 µM; for `C[C@@H](NC(=O)[C@H](O)[C@@H](O)C(=O)N1CCn2ccnc2C1)c1ccc(-n2cccn2)cc1` [Compound 2082]: 0.1 to 1 µM. The same measure for `C[C@@H](NC(=O)[C@H](O)[C@@H](O)C(=O)N1CCc2cccnc2C1)c1ccc(-n2cccn2)cc1` [Compound 2083]: 0.02 to 0.1 µM; for `CNc1nc2c(s1)CN(C(=O)[C@H](O)[C@@H](O)C(=O)N[C@H](C)c1ccc(-n3cccn3)cc1)CC2` [Compound 2084]: 0.02 to 0.1 µM.

As for `C[C@@H](NC(=O)[C@H](O)[C@@H](O)C(=O)N1C2CCC1c1cncnc1C2)c1ccc(-n2cccn2)cc1` (stereo partly shown) [Compound 2093], the Ki was greater than 1 µM.

As for `N#Cc1cc(F)ccc1N1CCC(CNC(=O)[C@H](O)[C@@H](O)C(=O)N2C3CCC2CC3)CC1` [Compound 2094], the Ki is greater than 1 µM.

Consider `C[C@@H](NC(=O)[C@H](O)[C@@H](O)C(=O)N1C2CCC1CC2)c1ccc(-n2cccn2)cc1` [Compound 2095], for which the Ki fell in the range of 0.1 to 1 µM. `C[C@@H](NC(=O)[C@H](O)[C@@H](O)C(=O)N1C2CCC1c1cc(F)c(F)cc12)c1ccc(-n2cccn2)cc1` [Compound 2096]: the Ki was in the range of 0.1 to 1 µM. The same measure for `C[C@@H](NC(=O)[C@H](O)[C@@H](O)C(=O)N1C[C@@H]2C[C@H](C1)c1cccc(=O)n1C2)c1ccc(-n2cccn2)cc1` [Compound 2097]: 0.1 to 1 µM; for `C[C@@H](NC(=O)[C@H](O)[C@@H](O)C(=O)N1CC2CC1CN2c1ccc(Cl)cc1)c1ccc(-n2cccn2)cc1` (stereo partly shown) [Compound 2099]: 0.1 to 1 µM. Next, `O=C(NCC1CCN(c2ccc(F)cc2Br)CC1)[C@H](O)[C@@H](O)C(=O)N1Cc2ccccc2C1` [Compound 2139]: less than 0.02 µM. The same measure for `O=C(NCC1CCN(c2cccc(F)c2OC(F)(F)F)CC1)[C@H](O)[C@@H](O)C(=O)N1CCCC1` [Compound 2140]: greater than 1 µM; for `CCOc1c(F)cccc1N1CCC(CNC(=O)[C@H](O)[C@@H](O)C(=O)N2CCCC2)CC1` [Compound 2141]: greater than 1 µM; for `O=C(NCC1CCN(c2ccc(F)cc2OCC(F)(F)F)CC1)[C@H](O)[C@@H](O)C(=O)N1CCCC1` [Compound 2142]: 0.02 to 0.1 µM.

In the case of `C[C@@H]1CN(c2ccccc2C#N)CCC1CNC(=O)[C@H](O)[C@@H](O)C(=O)N1Cc2ccccc2C1` (stereo partly shown) [Compound 2143], the Ki was less than 0.02 µM. Next, `C[C@@H]1CN(c2ccccc2C#N)CCC1CNC(=O)[C@H](O)[C@@H](O)C(=O)N1CCC[C@@H]1c1ccccc1` (stereo partly shown) [Compound 2144]: less than 0.02 µM; `C[C@H]1CN(c2ccccc2C#N)CCC1CNC(=O)[C@H](O)[C@@H](O)C(=O)N1CCC[C@@H]1c1ccccc1` (stereo partly shown) [Compound 2145]: 0.1 to 1 µM; `C[C@H]1CN(c2ccccc2C#N)CCC1CNC(=O)[C@H](O)[C@@H](O)C(=O)N1Cc2ccccc2C1` (stereo partly shown) [Compound 2146]: 0.1 to 1 µM. The same measure for `N#Cc1cc(F)ccc1N1C[C@@H]2C(CNC(=O)[C@H](O)[C@@H](O)C(=O)N3CCCC3)[C@@H]2C1` (stereo partly shown) [Compound 2147]: 0.1 to 1 µM. The same measure for `N#Cc1cc(F)ccc1N1[C@@H]2CC[C@H]1CC(CNC(=O)[C@H](O)[C@@H](O)C(=O)N1CCC[C@@H]1c1ccccc1)C2` (stereo partly shown) [Compound 2148]: 0.1 to 1 µM. For the molecule `N#Cc1cc(F)ccc1N1[C@@H]2CC[C@H]1CC(CNC(=O)[C@H](O)[C@@H](O)C(=O)N1Cc3ccccc3C1)C2` (stereo partly shown) [Compound 2149], the Ki was 0.1 to 1 µM. Next, `C[C@@H]1CN(c2ccc(F)cc2C#N)CCC1CNC(=O)[C@H](O)[C@@H](O)C(=O)N1CCCC1` (stereo partly shown) [Compound 2150]: 0.02 to 0.1 µM; `Cc1nc2c(s1)CN(C(=O)[C@H](O)[C@@H](O)C(=O)NCC1CCN(c3ccccc3C#N)CC1C)C2` (stereo partly shown) [Compound 2151]: less than 0.02 µM; `N#Cc1ccccc1N1CCC2(CC1)CC2NC(=O)[C@H](O)[C@@H](O)C(=O)N1CCC[C@@H]1c1ccccc1` (stereo partly shown) [Compound 2152]: greater than 1 µM. Take `N#Cc1ccccc1N1CCC2(CC1)CC2NC(=O)[C@H](O)[C@@H](O)C(=O)N1CCC[C@@H]1c1ccccc1` (stereo partly shown) [Compound 2153]: the Ki is greater than 1 µM. Next, `N#Cc1ccccc1N1CCC2(CC1)CC2NC(=O)[C@H](O)[C@@H](O)C(=O)N1Cc2ccccc2C1` (stereo partly shown) [Compound 2154]: greater than 1 µM; `N#Cc1ccccc1N1CCC2(CC1)CC2NC(=O)[C@H](O)[C@@H](O)C(=O)N1Cc2ccccc2C1` (stereo partly shown) [Compound 2155]: greater than 1 µM; `NC[C@@H]1[C@H]2CN(C(=O)[C@H](O)[C@@H](O)C(=O)NCC3CCN(c4ccccc4OC(F)(F)F)CC3)C[C@@H]12` [Compound 2156]: 0.02 to 0.1 µM. Next, `CC(C)(NC(=O)[C@H](O)[C@@H](O)C(=O)N1CCCC1)C1CCN(c2ccc(F)cc2C#N)CC1` [Compound 2157]: 0.02 to 0.1 µM.

Consider `O=C(NCC1CCN(c2ccccc2OCCC2CCCCC2)CC1)[C@H](O)[C@@H](O)C(=O)N1CCCC1` [Compound 2158], for which the Ki fell in the range of 0.02 to 0.1 µM. The same measure for `O=C(NCC1CCN(c2ccc(F)cc2OCCC2CCCCC2)CC1)[C@H](O)[C@@H](O)C(=O)N1CCCC1` [Compound 2159]: 0.02 to 0.1 µM. Next, `CC1(C)c2ccccc2CN1C(=O)[C@H](O)[C@@H](O)C(=O)NCC1CCN(c2ccccc2C#N)CC1` [Compound 2233]: less than 0.02 µM.

As for `C[C@@H](NC(=O)[C@H](O)[C@@H](O)C(=O)N1CCCC1(C)c1ccccc1)c1ccc(-n2cccn2)cc1` (stereo partly shown) [Compound 2235], the Ki was less than 0.02 µM. As for `C[C@@H](NC(=O)[C@](C)(O)[C@@H](O)C(=O)N1CCCC1(C)c1cccc(Cl)c1)c1ccc(-n2cccn2)cc1` (stereo partly shown) [Compound 2236], the Ki is greater than 1 µM. As for `C[C@@H](NC(=O)[C@H](O)[C@@H](O)C(=O)N1CC(C)(C)CC1c1cccc(Cl)c1)c1ccc(-n2cccn2)cc1` (stereo partly shown) [Compound 2237], the Ki lay within 0.1 to 1 µM.

For `C[C@@H](NC(=O)[C@H](O)[C@@H](O)C(=O)N1CC(C)(C)CC1(C)c1cccc(Cl)c1)c1ccc(-n2cccn2)cc1` (stereo partly shown) [Compound 2238], the Ki was 0.02 to 0.1 µM. Next, `C[C@@H](NC(=O)[C@H](O)[C@@H](O)C(=O)N1CC(C)(C)C[C@@]1(C)c1cccc(Cl)c1)c1ccc(-n2cccn2)cc1` [Compound 2239]: greater than 1 µM; `C[C@@H](NC(=O)[C@H](O)[C@@H](O)C(=O)N1CC(C)(C)C[C@]1(C)c1cccc(Cl)c1)c1ccc(-n2cccn2)cc1` [Compound 2240]: 0.02 to 0.1 µM. Next, `C[C@@H](NC(=O)[C@H](O)[C@@H](O)C(=O)N1CC(C)(C)CC1(C)c1nccs1)c1ccc(-n2cccn2)cc1` (stereo partly shown) [Compound 2241]: 0.1 to 1 µM; `C[C@@H](NC(=O)[C@H](O)[C@@H](O)C(=O)N1CCC[C@@H]1c1ncccn1)c1ccc(-n2cccn2)cc1` [Compound 2242]: less than 0.02 µM. Next, `C[C@@H](NC(=O)[C@H](O)[C@@H](O)C(=O)N1CCCC1(C)c1csc(N)n1)c1ccc(-n2cccn2)cc1` (stereo partly shown) [Compound 2243]: less than 0.02 µM; `CNc1nc(C2(C)CCCN2C(=O)[C@H](O)[C@@H](O)C(=O)N[C@H](C)c2ccc(-n3cccn3)cc2)cs1` (stereo partly shown) [Compound 2244]: less than 0.02 µM.

For `CNc1nc([C@H]2C[C@H]3C[C@H]3N2C(=O)[C@H](O)[C@@H](O)C(=O)N[C@H](C)c2ccc(-n3cccn3)cc2)cs1` [Compound 2245], the Ki is less than 0.02 µM. The same measure for `CNc1nc([C@H]2C[C@@H]3C[C@@H]3N2C(=O)[C@H](O)[C@@H](O)C(=O)N[C@H](C)c2ccc(-n3cccn3)cc2)cs1` [Compound 2246]: 0.02 to 0.1 µM. For the molecule `C[C@@H](NC(=O)[C@H](O)[C@@H](O)C(=O)N1CCC[C@@H]1c1cc[nH]n1)c1ccc(-n2cccn2)cc1` [Compound 2247], the Ki is less than 0.02 µM. Next, `C[C@@H](NC(=O)[C@H](O)[C@@H](O)C(=O)N1CCC[C@@H]1c1ccn(C)n1)c1ccc(-n2cccn2)cc1` [Compound 2248]: less than 0.02 µM; `CNc1nccc([C@H]2CCCN2C(=O)[C@H](O)[C@@H](O)C(=O)N[C@H](C)c2ccc(-n3cccn3)cc2)n1` [Compound 2249]: less than 0.02 µM; `CNc1nc([C@H]2C=CCN2C(=O)[C@H](O)[C@@H](O)C(=O)N[C@H](C)c2ccc(-n3cccn3)cc2)cs1` [Compound 2250]: less than 0.02 µM.
